In data set [1] the test system is larvae of the mustard beetle (Phaedon cochleariae). The data set can be described thus: Phaedon test (PHAECO spray treatment). Particulars: Phaedon cochleariae, in Brassica rapa, foliar, read-out: effect in % (beetle larvae killed).
Data set [2] relates to caterpillars of the armyworm (Spodoptera frugiperda). Nature of the data set: Spodoptera frugiperda test (SPODFR spray treatment). The format is in vivo. The conditions noted are these: Spodoptera frugiperda, foliar, read-out: effect in % (caterpillars killed). The source says:
(§1) Solvent: 78.0 parts by weight of acetone

Data set [3] relates to two-spotted spidermite (Tetranychus urticae). Nature of the data set: Tetranychus urticae test; OP-resistant (TETRUR spray application). The format is in vivo. Particulars: read-out: mortality in % (spider mites killed). The source says: Solvent: 78.0 parts by weight acetone
• 1.5 parts by weight dimethylformamide Emulsifier 0.5 part by weight alkylaryl polyglycol ether
French beans (Phaseolus vulgaris) which are heavily infested with all stages of the two-spotted spidermite (Tetranychus urticae) are sprayed with a preparation of the active compound at the desired concentration.

The nature of data set [4]: log P determination by HPLC (EEC Directive 79/831 Annex V.A8). It counts as physicochemical. The procedure: The measurements were carried out using an Agilent 1100 LC system with a 50*4.6 Zorbax Eclipse C18 1.8 μm column (oven temperature 55° C., flow rate 2.0 ml/min).
The following mobile phases were used:
Mobile phase A: acetonitrile+1000 μl of formic acid/l
Mobile phase B: Millipore water+900 μl of formic acid/l

In data set [5] the test system is green peach aphid (Myzus persicae). Nature of the data set: Myzus test (MYZUPE spray treatment). The format is in vivo. The conditions noted are these: Myzus persicae, foliar; application rate 100 g/ha, Chinese cabbage leaf discs; read-out: effect in % (aphids killed).
Text: Solvent: 78 parts by weight of acetone
as §1

Like-named read-outs stand apart in the source and are kept apart here.

As usually defined, the mortality is the percentage killed. For the compound `Cc1cc(Cl)cc(C(=O)NC(C)C)c1NC(=O)c1cc(Cn2nnc(C(F)(C(F)(F)F)C(F)(F)F)n2)nn1-c1ncccc1Cl` [Example 363], the pest or weed control at 100 g/ha in data set [1] and in data set [2] (in Zea mays) was ≥ 80% in each case. Further, in data set [3], the mortality at 20 g/ha was ≥ 80%. The compound also yielded a chromatographic logP in data set [4] (log P) of 4.21.

With `CNC(=O)c1cc(Cl)cc(C)c1NC(=O)c1cc(Cn2nnnc2C(F)(F)F)nn1-c1ccc(Cl)cc1Cl` [Example 449], the pest or weed control at 100 g/ha in data set [1] is ≥ 80%; in data set [2] (application rate 100 g/ha, maize leaf discs), ≥ 80%; in data set [5], ≥ 80%. Also, in data set [3], the mortality at 20 g/ha was ≥ 80%. Further, the chromatographic logP in data set [4] (reversed-phase HPLC, Zorbax Eclipse C18 column, determined by HPLC according to EEC Directive 79/831 Annex V.A8, read-out: log P) was determined as 3.64.

The values above are taken from US8324390B2, “Tetrazole-substituted anthranilamides as pesticides” (Bayer CropScience AG, priority 2008, dated 2012).
